Converted amounts (≈) assume the structure as drawn.
Each molecule was assayed against E. coli MurF (Escherichia coli, UniProt P11880) (assay: biochemical). Conditions: 0.25 h, Table S1, PKIS screening; read-out: RA [%] at 100 µM MurF.
Sequence of E. coli MurF (P11880 whole entry): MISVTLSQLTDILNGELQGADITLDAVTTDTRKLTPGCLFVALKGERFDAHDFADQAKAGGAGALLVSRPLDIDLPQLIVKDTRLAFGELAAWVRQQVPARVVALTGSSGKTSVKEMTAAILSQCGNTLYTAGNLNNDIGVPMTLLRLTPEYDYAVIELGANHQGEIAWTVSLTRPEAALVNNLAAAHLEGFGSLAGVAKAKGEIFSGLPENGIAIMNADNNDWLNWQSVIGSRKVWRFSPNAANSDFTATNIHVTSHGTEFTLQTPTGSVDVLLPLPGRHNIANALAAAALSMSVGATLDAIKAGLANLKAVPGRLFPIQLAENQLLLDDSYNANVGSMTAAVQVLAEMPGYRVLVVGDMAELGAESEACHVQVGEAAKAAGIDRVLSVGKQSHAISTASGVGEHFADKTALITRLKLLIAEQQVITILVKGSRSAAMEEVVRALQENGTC

Molecule | remaining activity at 100 µM [%]
CCS(=O)(=O)c1ccc(OC)c(Nc2ncc(-c3cccc(F)c3)o2)c1 [GW621970X] | 89
CC1=C(C(=O)Nc2ccc3[nH]ncc3c2)C(c2ccc(Cl)c(Cl)c2)CC(=O)N1 (centres unmarked) [GSK299115A] | 68
CS(=O)(=O)CCN(CC#N)Cc1ccc(-c2ccc3ncnc(Nc4ccc(OCc5cccc(F)c5)c(Cl)c4)c3c2)o1 [GW616030X] | 80
Nc1nc(-c2cccc(Cl)c2)c(-c2ccc3ncccc3n2)s1 [GW780159X] | 83
CCn1c(-c2nonc2N)nc2c(C#CC(C)(C)O)nc(OC[C@@H](N)c3ccccc3)cc21 [GSK938890A] | 92
NC(=O)c1cccc(Nc2nccc(Nc3cccc4[nH]ncc34)n2)c1 [GW782612X] | 77

Same assay, conditions: Table S1, PKIS screening

Molecule | RA [%] at 100 µM MurF [%]
COc1ccc(-c2cc(-c3c[nH]nc3-c3ccccn3)ccn2)cc1 [GW679410X#4] | 82
SB-675259-M | 100

These molecules were tested on E. coli (ATCC 25922) (assay: Antimicrobial testing, broth microdilution). Conditions: Escherichia coli, ATCC25922; positive control; 20 h, 37 °C.
Type: cell-based
Method: (§1) Antimicrobial testing was performed by the broth microdilution method in 96-well plates following the Clinical and Laboratory Standards Institute guidelines[29] and European Committee on Antimicrobial Susceptibility Testing recommendations. Bacterial suspensions equivalent to 0.5 McFarland turbidity standard were diluted with cation-adjusted Mueller–Hinton broth with TES buffering (ThermoFisher Scientific), for a final inoculum of 10^5 CFU/mL. The compounds dissolved in DMSO and the inoculum were mixed together and incubated for 20 h at 37 °C. […] The MICs were determined against Staphylococcus aureus (ATCC 29213) and E. coli (ATCC 25922) bacterial strains. Tetracycline was used as the positive control on every assay plate, with MICs of 0.5 and 1 µg/mL for S. aureus and E. coli, respectively.

Molecule | MIC [µg/mL]
CN(C)[C@@H]1C(O)=C(C(N)=O)C(=O)[C@@]2(O)C(O)=C3C(=O)c4c(O)cccc4[C@@](C)(O)[C@H]3C[C@@H]12 [Tetracycline] | 1 (≈ 2.25 µM)

These molecules were tested on Staphylococcus aureus (ATCC 29213) (assay: Antimicrobial testing, broth microdilution). Conditions: ATCC29213, positive control, 20 h, 37 °C.
Type: cell-based
Method: as §1

Molecule | MIC [µg/mL]
CN(C)[C@@H]1C(O)=C(C(N)=O)C(=O)[C@@]2(O)C(O)=C3C(=O)c4c(O)cccc4[C@@](C)(O)[C@H]3C[C@@H]12 [Tetracycline] | 0.5 (≈ 1.13 µM)

The molecules below were run against E. coli MurD (Escherichia coli, UniProt P14900) (assay: biochemical). Conditions: not given.
In short: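 Reaction 15 min at 37 °C, then phosphate detected with Biomol green at 650 nm. Values are residual activity versus 5% DMSO carrier controls.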

Sequence of E. coli MurD (P14900 whole entry): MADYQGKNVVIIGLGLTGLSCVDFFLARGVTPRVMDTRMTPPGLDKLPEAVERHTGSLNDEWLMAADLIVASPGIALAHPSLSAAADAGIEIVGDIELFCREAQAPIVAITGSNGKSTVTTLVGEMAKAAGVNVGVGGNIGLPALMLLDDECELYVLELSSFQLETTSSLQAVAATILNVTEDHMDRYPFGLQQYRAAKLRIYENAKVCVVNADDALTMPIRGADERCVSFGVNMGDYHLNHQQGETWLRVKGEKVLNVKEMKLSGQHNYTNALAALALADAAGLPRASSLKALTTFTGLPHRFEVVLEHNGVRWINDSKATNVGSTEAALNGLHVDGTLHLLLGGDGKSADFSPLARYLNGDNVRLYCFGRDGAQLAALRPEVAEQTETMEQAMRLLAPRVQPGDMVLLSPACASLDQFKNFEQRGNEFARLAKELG

Molecule | RA [%] at 100 µM MurD
COc1ccc(-c2cc(-c3c[nH]nc3-c3ccccn3)ccn2)cc1 [GW679410X#4] | 98%
SB-675259-M | 80

Same assay, conditions: 0.25 h, Table S1, PKIS screening; read-out: RA [%] at 100 µM MurD

Molecule | remaining activity at 100 µM [%]
CCS(=O)(=O)c1ccc(OC)c(Nc2ncc(-c3cccc(F)c3)o2)c1 [GW621970X] | 55
CC1=C(C(=O)Nc2ccc3[nH]ncc3c2)C(c2ccc(Cl)c(Cl)c2)CC(=O)N1 (centres unmarked) [GSK299115A] | 96
CS(=O)(=O)CCN(CC#N)Cc1ccc(-c2ccc3ncnc(Nc4ccc(OCc5cccc(F)c5)c(Cl)c4)c3c2)o1 [GW616030X] | 59
Nc1nc(-c2cccc(Cl)c2)c(-c2ccc3ncccc3n2)s1 [GW780159X] | 90
CCn1c(-c2nonc2N)nc2c(C#CC(C)(C)O)nc(OC[C@@H](N)c3ccccc3)cc21 [GSK938890A] | 80
NC(=O)c1cccc(Nc2nccc(Nc3cccc4[nH]ncc34)n2)c1 [GW782612X] | 92

These molecules were tested against E. coli MurC (Escherichia coli, UniProt P17952) (assay: Malachite green inhibition assay, MurC). Conditions: 0.25 h, Table S1, PKIS screening; read-out: RA [%] at 100 µM MurC.
Type: biochemical

Sequence of E. coli MurC (P17952 whole entry): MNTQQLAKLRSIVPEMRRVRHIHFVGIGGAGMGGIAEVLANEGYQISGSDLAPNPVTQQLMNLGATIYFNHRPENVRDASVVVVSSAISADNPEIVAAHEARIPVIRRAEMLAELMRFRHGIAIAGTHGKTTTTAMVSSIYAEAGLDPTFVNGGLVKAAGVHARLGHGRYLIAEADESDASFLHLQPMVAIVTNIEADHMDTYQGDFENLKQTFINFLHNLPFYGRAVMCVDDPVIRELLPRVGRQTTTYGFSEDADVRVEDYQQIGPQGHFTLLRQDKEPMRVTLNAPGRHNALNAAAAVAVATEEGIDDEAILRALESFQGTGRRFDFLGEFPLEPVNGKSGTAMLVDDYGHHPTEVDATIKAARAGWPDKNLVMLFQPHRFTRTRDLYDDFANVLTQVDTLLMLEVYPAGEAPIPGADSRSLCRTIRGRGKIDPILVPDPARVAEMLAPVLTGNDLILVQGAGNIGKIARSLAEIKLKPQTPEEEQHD

Molecule | remaining activity at 100 µM [%]
CCS(=O)(=O)c1ccc(OC)c(Nc2ncc(-c3cccc(F)c3)o2)c1 [GW621970X] | 76
CC1=C(C(=O)Nc2ccc3[nH]ncc3c2)C(c2ccc(Cl)c(Cl)c2)CC(=O)N1 (centres unmarked) [GSK299115A] | 78
CS(=O)(=O)CCN(CC#N)Cc1ccc(-c2ccc3ncnc(Nc4ccc(OCc5cccc(F)c5)c(Cl)c4)c3c2)o1 [GW616030X] | 76
Nc1nc(-c2cccc(Cl)c2)c(-c2ccc3ncccc3n2)s1 [GW780159X] | 56
CCn1c(-c2nonc2N)nc2c(C#CC(C)(C)O)nc(OC[C@@H](N)c3ccccc3)cc21 [GSK938890A] | 76
NC(=O)c1cccc(Nc2nccc(Nc3cccc4[nH]ncc34)n2)c1 [GW782612X] | 86

Same assay, conditions: Table S1, PKIS screening

Molecule | RA [%] at 100 µM MurC [%]
COc1ccc(-c2cc(-c3c[nH]nc3-c3ccccn3)ccn2)cc1 [GW679410X#4] | 61
SB-675259-M | 72

Reference: article PMC6522912, “Evaluation of the published kinase inhibitor set to identify multiple inhibitors of bacterial ATP-dependent mur ligases” (Journal of Enzyme Inhibition and Medicinal Chemistry, 2019)
